These are literature values, as cited in US20220257506A1, “Alkaline Drink” (WET HOLDINGS (GLOBAL) LIMITED, priority 2019, published 2022).

The conditions of data set [1]: humans.
Test in data set [2]: not given
The source holds these as a separate data set.

The conditions of data set [3]: acute administration, humans.
For data set [4] the following is noted: acute dosing, murine stroke models.
The test system of data set [5] is testicular endocrine function. The settings on record: dogs, very high doses.
For data set [6], the system named is adrenal and gonadal steroidogenesis. The settings on record: humans, up to 80 mg/day, basal conditions.

Turning to `C=C(C)[C@@H]1CCC(C)=C[C@H]1c1c(O)cc(CCCCC)cc1O` [CBD, Cannabidiol], the “abuse or dependence potential” value in data set [1] is recorded as “no effects indicative of any abuse or dependence potential”. Further, where the note is “600 mg single dose, nine healthy male volunteers”, the “decrease of blood pressure” value is recorded as “about 6 mm Hg”. The “resting blood pressure and blood pressure response to stress” value (single dose, particularly cold stress, post-test periods) is “reduces resting blood pressure and the blood pressure response to stress”.

In the case of `CCCCCc1cc(O)c2c(c1)OC(C)(C)[C@@H]1CCC(C)=C[C@@H]21` [THC, (−)-trans-Δ^9-tetrahydrocannabinol], in data set [2] (acute dosing, anaesthetised animals, conscious animals and animal models of stress or hypertension), the “BP and heart rate” value is “reduced BP and heart rate”. Also, in data set [2] (chronic dosing, anaesthetised animals), the “BF in large arteries” value is recorded as “increased BF in large arteries”. Moreover, the BP entry in data set [2] (chronic dosing, models of stress or hypertension) was “reduced BP”. For the same compound, the HR entry in data set [3] is given as “increased HR”. Further, the “cerebral BF” value in data set [4] is “increased cerebral BF”.

Consider `CC[C@H](C)C(=O)O[C@H]1C[C@@H](C)C=C2C=C[C@H](C)[C@H](CC[C@@H]3C[C@@H](O)CC(=O)O3)[C@H]21` [lovastatin], for which, in data set [5], the testicular endocrine function result is recorded as “reduction in testicular endocrine function”. The “effect on adrenal and gonadal steroidogenesis” value in data set [6] was “no effect on adrenal and gonadal steroidogenesis”.
